These results are taken from patent US9694016B2 (Novartis AG, priority 2013, dated 2017).

The target of this test is b-Raf (V600E) (Homo sapiens (Human), UniProt P15056, V600E). As to conditions: read-out: b-Raf IC-50; AlphaScreen, 60 min pre-incubation, 3 hours reaction. On the technique in general: Alpha assays give light when donor and acceptor beads are brought close together.
Sequence of b-Raf (V600E) (P15056 whole entry V600E): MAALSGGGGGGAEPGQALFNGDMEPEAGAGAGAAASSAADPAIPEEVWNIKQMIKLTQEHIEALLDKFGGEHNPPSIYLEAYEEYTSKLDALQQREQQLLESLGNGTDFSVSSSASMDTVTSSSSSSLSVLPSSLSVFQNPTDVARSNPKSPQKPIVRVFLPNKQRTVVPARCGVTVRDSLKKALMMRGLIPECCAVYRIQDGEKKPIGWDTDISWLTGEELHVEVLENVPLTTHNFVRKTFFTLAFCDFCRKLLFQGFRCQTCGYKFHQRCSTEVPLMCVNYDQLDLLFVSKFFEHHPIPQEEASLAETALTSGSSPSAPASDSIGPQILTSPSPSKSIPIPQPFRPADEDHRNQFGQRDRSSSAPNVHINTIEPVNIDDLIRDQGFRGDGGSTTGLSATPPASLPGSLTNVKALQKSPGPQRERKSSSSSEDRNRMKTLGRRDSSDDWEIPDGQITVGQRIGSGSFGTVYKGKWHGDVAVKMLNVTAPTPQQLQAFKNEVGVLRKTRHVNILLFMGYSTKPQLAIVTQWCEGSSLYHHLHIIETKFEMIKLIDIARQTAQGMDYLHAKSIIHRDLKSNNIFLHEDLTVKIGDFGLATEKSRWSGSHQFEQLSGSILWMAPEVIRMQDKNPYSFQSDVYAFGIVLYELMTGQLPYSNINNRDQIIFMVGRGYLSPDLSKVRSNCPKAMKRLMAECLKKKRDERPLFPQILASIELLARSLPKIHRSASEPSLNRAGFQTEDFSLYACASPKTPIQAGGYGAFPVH
Take `Cc1ccc(NC(=O)c2ccnc(C(C)(C)F)c2)cc1-c1cc(N2CCOC[C@H]2C)c(=O)n(C)n1` [Example 673, (R)-2-(2-fluoropropan-2-yl)-N-(4-methyl-3-(1-methyl-5-(3-methylmorpholino)-6-oxo-1,6-dihydropyridazin-3-yl)phenyl)isonicotinamide]: the IC50 is 6.3 nM.

For `Cc1ccc(NC(=O)c2ccnc(C(C)(F)F)c2)cc1-c1cc(N2CCOC[C@H]2C)c(=O)n(C)n1` [Example 674, (R)-2-(1,1-difluoroethyl)-N-(4-methyl-3-(1-methyl-5-(3-methylmorpholino)-6-oxo-1,6-dihydropyridazin-3-yl)phenyl)isonicotinamide], the IC50 amounted to 3.7 nM. Next, `Cc1ccc(NC(=O)c2ccnc(C(C)(C)C#N)c2)cc1-c1cc(C2CCOCC2)c(=O)n(C)n1` [Example 675, 2-(2-cyanopropan-2-yl)-N-(4-methyl-3-(1-methyl-6-oxo-5-(tetrahydro-2H-pyran-4-yl)-1,6-dihydropyridazin-3-yl)phenyl)isonicotinamide]: 4.9 nM. Turning to `Cc1ccc(NC(=O)c2ccnc(C(C)(C)F)c2)cc1-c1cc(C2CCOCC2)c(=O)n(C)n1` [Example 676, 2-(2-fluoropropan-2-yl)-N-(4-methyl-3-(1-methyl-6-oxo-5-(tetrahydro-2H-pyran-4-yl)-1,6-dihydropyridazin-3-yl)phenyl)isonicotinamide], the IC50 is 2.4 nM. Take `Cc1ncc(NC(=O)c2ccnc(C(C)(C)F)c2)cc1-c1cc(N2CCOCC2)c(=O)n(C)n1` [Example 677, 2-(2-fluoropropan-2-yl)-N-(6-methyl-5-(1-methyl-5-morpholino-6-oxo-1,6-dihydropyridazin-3-yl)pyridin-3-yl)isonicotinamide]: the IC50 amounted to 12.7 nM. For the molecule `Cc1ncc(NC(=O)c2ccnc(C(C)(F)F)c2)cc1-c1cc(N2CCOCC2)c(=O)n(C)n1` [Example 678, 2-(1,1-difluoroethyl)-N-(6-methyl-5-(1-methyl-5-morpholino-6-oxo-1,6-dihydropyridazin-3-yl)pyridin-3-yl)isonicotinamide], the IC50 is 6.4 nM.

`CCC(F)(F)c1cc(C(=O)Nc2cnc(C)c(-c3cc(N4CCOCC4)c(=O)n(C)n3)c2)ccn1` [Example 679, 2-(1,1-difluoropropyl)-N-(6-methyl-5-(1-methyl-5-morpholino-6-oxo-1,6-dihydropyridazin-3-yl)pyridin-3-yl)isonicotinamide]: the IC50 was found to be 8.1 nM. Take `Cc1ncc(NC(=O)c2ccnc(C(F)F)c2)cc1-c1cc(N2CCOCC2)c(=O)n(C)n1` [Example 680, 2-(difluoromethyl)-N-(6-methyl-5-(1-methyl-5-morpholino-6-oxo-1,6-dihydropyridazin-3-yl)pyridin-3-yl)isonicotinamide]: the IC50 is 14.6 nM. For the molecule `Cc1ncc(NC(=O)c2cccc(C(F)F)c2)cc1-c1cc(N2CCOCC2)c(=O)n(C)n1` [Example 681, 3-(difluoromethyl)-N-(6-methyl-5-(1-methyl-5-morpholino-6-oxo-1,6-dihydropyridazin-3-yl)pyridin-3-yl)benzamide], the IC50 stood at 3.1 nM. On to `Cc1ncc(NC(=O)c2ccnc(C3CC3)c2)cc1-c1cc(N2CCOCC2)c(=O)n(C)n1` [Example 682, 2-cyclopropyl-N-(6-methyl-5-(1-methyl-5-morpholino-6-oxo-1,6-dihydropyridazin-3-yl)pyridin-3-yl)isonicotinamide], for which the IC50 was found to be 6.9 nM. `Cc1ncc(NC(=O)c2ccnc(C3(C#N)CC3)c2)cc1-c1cc(N2CCOCC2)c(=O)n(C)n1` [Example 683, 2-(1-cyanocyclopropyl)-N-(6-methyl-5-(1-methyl-5-morpholino-6-oxo-1,6-dihydropyridazin-3-yl)pyridin-3-yl)isonicotinamide]: the IC50 amounted to 11.2 nM. As to `Cc1ncc(NC(=O)c2cccc(C(F)(F)F)c2)cc1-c1ccc(C#N)c(N2CCOCC2)c1` [Example 684], the IC50 is 2.9 nM. `Cc1ncc(NC(=O)c2cc(CN(C)C)cc(C(F)(F)F)c2)cc1-c1ccc(C#N)c(N2CCOCC2)c1` [Example 685, N-(5-(4-cyano-3-morpholinophenyl)-6-methylpyridin-3-yl)-3-((dimethylamino)methyl)-5-(trifluoromethyl)benzamide]: the IC50 was determined as 21.4 nM. Turning to `Cc1ncc(NC(=O)c2ccnc(C(C)C)c2)cc1-c1ccc(C#N)c(N2CCOCC2)c1` [Example 686, N-(5-(4-cyano-3-morpholinophenyl)-6-methylpyridin-3-yl)-2-isopropylisonicotinamide], the IC50 was found to be 1.7 nM. Regarding `Cc1ncc(NC(=O)c2cccc(C(F)(F)F)c2)cc1-c1ccc(S(C)(=O)=O)c(N2CCOCC2)c1` [Example 687, N-(6-methyl-5-(4-(methylsulfonyl)-3-morpholinophenyl)pyridin-3-yl)-3-(trifluoromethyl)benzamide], the IC50 amounted to 0.8 nM. As to `Cc1ccc(NC(=O)c2ccnc(C(C)(F)F)c2)cc1-c1cc(N2C3CCC2COC3)cc(=O)n1C` [Example 691, N-(3-(4-(3-oxa-8-azabicyclo[3.2.1]octan-8-yl)-1-methyl-6-oxo-1,6-dihydropyridin-2-yl)-4-methylphenyl)-2-(1,1-difluoroethyl)isonicotinamide], the IC50 was 23.8 nM. Next, `CCNc1nc(-c2cc(NC(=O)c3ccnc(C(F)(F)F)c3)ccc2C)cc(N2CCOCC2)n1` [Example 694, N-(3-(2-(ethylamino)-6-morpholinopyrimidin-4-yl)-4-methylphenyl)-2-(trifluoromethyl)isonicotinamide]: 1 nM; `CCNc1nc(-c2cc(NC(=O)c3ccccc3)ccc2C)cc(N2CCOCC2)n1` [Example 695, N-(3-(2-(ethylamino)-6-morpholinopyrimidin-4-yl)-4-methylphenyl)benzamide]: 4 nM; `CCNc1nc(-c2cc(NC(=O)c3ccnc(C(C)(C)C)c3)ccc2C)cc(N2CCOCC2)n1` [Example 696, 2-(tert-butyl)-N-(3-(2-(ethylamino)-6-morpholinopyrimidin-4-yl)-4-methylphenyl)isonicotinamide]: 2.4 nM. For the molecule `CCNc1nc(-c2cc(NC(=O)c3ccnc(C(C)(F)F)c3)ccc2C)cc(N2CCOCC2)n1` [Example 697, 2-(1,1-difluoroethyl)-N-(3-(2-(ethylamino)-6-morpholinopyrimidin-4-yl)-4-methylphenyl)isonicotinamide], the IC50 turned out to be 1 nM. As for `CCNc1nc(-c2cc(NC(=O)c3cccc(C(F)F)c3)ccc2C)cc(N2CCOCC2)n1` [Example 698, 3-(difluoromethyl)-N-(3-(2-(ethylamino)-6-morpholinopyrimidin-4-yl)-4-methylphenyl)benzamide], the IC50 stood at 0.7 nM. Next, `CCNc1nc(-c2cc(NC(=O)c3cccc(-c4nnco4)c3)ccc2C)cc(N2CCOCC2)n1` [Example 699, N-(3-(2-(ethylamino)-6-morpholinopyrimidin-4-yl)-4-methylphenyl)-3-(1,3,4-oxadiazol-2-yl)benzamide]: 1.7 nM; `CCNc1nc(-c2cc(NC(=O)c3ccnc(C(C)C)c3)ccc2C)cc(N2CCOCC2)n1` [Example 700, N-(3-(2-(ethylamino)-6-morpholinopyrimidin-4-yl)-4-methylphenyl)-2-isopropylisonicotinamide]: 1.2 nM; `CCNc1nc(-c2cc(NC(=O)c3cccc(C(C)(F)F)c3)ccc2C)cc(N2CCOCC2)n1` [Example 701, 3-(1,1-difluoroethyl)-N-(3-(2-(ethylamino)-6-morpholinopyrimidin-4-yl)-4-methylphenyl)benzamide]: 1.3 nM. Take `CCNc1nc(-c2cc(NC(=O)c3ccnc(S(C)(=O)=O)c3)ccc2C)cc(N2CCOCC2)n1` [Example 702, N-(3-(2-(ethylamino)-6-morpholinopyrimidin-4-yl)-4-methylphenyl)-2-(methylsulfonyl)isonicotinamide]: the IC50 came out at 3 nM.

For `CCNc1nc(-c2cc(NC(=O)c3cc(C(F)(F)F)c(=O)n(CC)c3)ccc2C)cc(N2CCOCC2)n1` [Example 703, 1-ethyl-N-(3-(2-(ethylamino)-6-morpholinopyrimidin-4-yl)-4-methylphenyl)-6-oxo-5-(trifluoromethyl)-1,6-dihydropyridine-3-carboxamide], the IC50 was 1.3 nM. `CCNc1nc(-c2cc(NC(=O)c3ccnc(C(C)(C)O)c3)ccc2C)cc(N2CCOCC2)n1` [Example 705, N-(3-(2-(ethylamino)-6-morpholinopyrimidin-4-yl)-4-methylphenyl)-2-(2-hydroxypropan-2-yl)isonicotinamide]: the IC50 came out at 4.1 nM. Regarding `CCNc1nc(-c2cc(NC(=O)c3ccnc(C(F)(F)CC)c3)ccc2C)cc(N2CCOCC2)n1` [Example 706, 2-(1,1-difluoropropyl)-N-(3-(2-(ethylamino)-6-morpholinopyrimidin-4-yl)-4-methylphenyl)isonicotinamide], the IC50 came to 0.8 nM.

Consider `CCNc1nc(-c2cc(NC(=O)c3ccnc(C4COC4)c3)ccc2C)cc(N2CCOCC2)n1` [Example 707, N-(3-(2-(ethylamino)-6-morpholinopyrimidin-4-yl)-4-methylphenyl)-2-(oxetan-3-yl)isonicotinamide], for which the IC50 is 1.9 nM. In the case of `CCNc1nc(-c2cc(NC(=O)c3ccnc(C4(C#N)CC4)c3)ccc2C)cc(N2CCOCC2)n1` [Example 708, 2-(1-cyanocyclopropyl)-N-(3-(2-(ethylamino)-6-morpholinopyrimidin-4-yl)-4-methylphenyl)isonicotinamide], the IC50 amounted to 0.5 nM. With `CCNc1nc(-c2cc(NC(=O)c3cnnc(C(C)(C)C#N)c3)ccc2C)cc(N2CCOCC2)n1` [Example 709, 6-(2-cyanopropan-2-yl)-N-(3-(2-(ethylamino)-6-morpholinopyrimidin-4-yl)-4-methylphenyl)pyridazine-4-carboxamide], the IC50 was 3.4 nM.

On to `CCNc1nc(-c2cc(NC(=O)c3ccnc(C(C)(C)C#N)c3)ccc2C)cc(N2CCOC[C@H]2C)n1` [Example 711, (R)-2-(2-cyanopropan-2-yl)-N-(3-(2-(ethylamino)-6-(3-methylmorpholino)pyrimidin-4-yl)-4-methylphenyl)isonicotinamide], for which the IC50 stood at 5.6 nM.
